What all share (type): cell-based, Human
The test system of one test is U87 cells. As to the kind of experiment: Annexin V–FITC/PI apoptosis assay of U87 cells. Conditions: bepridil 25 μM 6–48 hr, CB‐DMB 3.5 μM 6–48 hr, KB‐R7943 25 μM 20 hr, BAPTA‐AM 10 μM 18 hr, CC‐930 10 μM, PD169316 10 μM. The method, then: U87 cells were seeded in six‐well plates (Corning, Corning, NY, USA) with 1 × 10^6 cells per well and treated with NCX blockers, BAPTA‐AM, or MAPK inhibitors. Drug treatment was performed by the person who is blinded to the experimental groups. After treatment, cells were harvested in 15‐ml tubes and washed with cold sterile PBS. After being centrifuged, cells were fixed with 70% ethanol […] at 4°C for at least 1 hr. For propidium iodide (PI) staining, cells were washed one time with PBS and then were treated with ribonuclease A (RNase; 100 μg·ml^−1) for 30 min. PI (10 μg·ml^−1) was added, and stained cells were kept in the dark at 4°C until analysis. The number of cells analysed for each sample was 10,000 events. FACS analysis was performed using the Coulter CytoFlexS flow cytometer (Beckman Coulter, CA, USA), and the percentage of cells in the G0/G1, S, and G2/M phases was determined using cell cycle analysis software, ModFit LT 5.0 (Verity Software House, Topsham, ME, USA). For the apoptosis assay, cells were harvested and washed twice with cold PBS and resuspended at a density of 1 × 10^6 cells·ml^−1 in 100 μl of binding buffer containing 5 μl of Annexin V–FITC and 5 μl of PI working solution (100 μg·ml^−1). After incubation at room temperature for 15 min in the dark, 400 μl of binding buffer was added to each sample. Apoptosis was analysed by Coulter CytoFlexS flow cytometer (Beckman Coulter) for at least 10,000 events, and data were analysed with the software, CyExpert 2.0 (Beckman Coulter).

The test system of a further test is forward NCX. As to the kind of experiment: Whole-cell patch-clamp recording of forward-mode NCX currents in U87 cells. As to conditions: forward NCX current measured at −110 mV, mean ± SEM, n = 4, read-out: IC50, blocking forward NCX (currents). The protocol: (§1) Whole‐cell patch‐clamp recording was performed using a Multiclamp 700B amplifier (Molecular Devices, Foster City, CA, USA) at room temperature. Voltage protocols were provided and current recorded via a DigiData‐1550B interface (Molecular Devices) controlled by pClamp 10 Software (Molecular Devices, RRID:SCR_011323). […] Internal solution consisted of (in mM): 120 CsCl, 20 NaCl, 2 MgCl2, 13 CaCl2, 2 Na2ATP, 20 BAPTA, and 10 HEPES at a pH 7.2. […] Series resistance was compensated by 75–85%. Linear leak and residual capacitance currents were subtracted online using a P/4 protocol of the pClamp 10. For the recording of the membrane currents related to the NCX, cells were held at −50 mV and depolarized to +60 mV, and then a voltage ramp starting from +60 to −120 mV was applied for 1,000 ms before returning back to −50 mV. The reverse and forward NCX currents were measured at +50 and −110 mV holding potentials respectively (Molinaro et al., 2008; Rahman, Inman, Kiss, & Janssen, 2012; Song, Chen, & Yu, 2014). Data were filtered at 3 KHz and digitized at sampling rates of 20 KHz. For drug application, cells were perfused with a VC‐6 Six Channel Perfusion Valve Control Systems (Warner Instruments, Greenwich, CT, USA) connected to a gravity‐fed perfusion systems.
(§2) Data are expressed as mean ± SEM and analysed by Prism 7 software, La Jolla, CA (GraphPad Prism, RRID:SCR_002798). The data and statistical analysis comply with the recommendations of the British Journal of Pharmacology on experimental design and analysis in pharmacology. Concentrations of the NCX blockers (IC50) exerting half‐maximal inhibition of NCX currents were obtained by fitting the concentration–response with the equation: I/I0*100%=Bottom+Top−Bottom/1+10^((^Log^IC50−C)*n) , where I 0 and I are current amplitudes measured in control and in the presence of NCX blockers, C is the logarithm of concentration, and n is the Hill coefficient. The statistical difference between two independent groups was analysed by Student's parametric unpaired t test. And the original data of more than two groups were assessed by the parametric one‐way ANOVA followed by a Tukey's post hoc test. The data for cell viability and Western blot were usually normalized to the control group, and were thus analysed by the non‐parametric Kruskal–Wallis test followed by a Dunn's post hoc test. Differences were considered to be significant when P < .05. Post hoc tests were conducted when the F value achieved the necessary level (P < .05) and there was no significant variance inhomogeneity.
(§3) We characterized the membrane currents associated with NCX activity in glioblastoma cells using whole‐cell patch‐clamp recording. […] The NCX current in its reverse mode (Ca^2+ entry) was measured at +50, and the forward‐mode current (Ca^2+ exit) was measured at −110 mV. The Ni^2+ (10 mM) was employed to inhibit and identify the NCX currents in its either reverse or forward mode as previously reported (Maack, Ganesan, Sidor, & O'Rourke, 2005).
For orientation: In patch-clamp work, channel activity is measured electrically.

For the next test, the system named is reverse NCX. As to the kind of experiment: Whole-cell patch-clamp recording of reverse-mode NCX currents in U87 cells. As to conditions: reverse NCX current measured at +50 mV, mean ± SEM, n = 4, read-out: IC50, blocking reverse NCX (currents). The protocol:
as §1, §2, §3

The subject of a further test is U251 cells. Description: Cell viability assay (Cell Counting Kit-8), U251. Conditions: for IC50: 72 hr, CCK-8, mean ± SEM. The protocol: Cell viability was determined by using a Cell Counting Kit‐8 (Dojindo, Japan). Briefly, cells were harvested from flasks and plated in 96‐well cell culture plates at 5 × 10^3 per well and cultured overnight. […] Control cells were treated with cell culture medium and measured at the same time point as treatment groups. CCK‐8 solution (10 μl) was added to each well of the 96‐well plates, and the cultures were incubated for 30 min at 37°C. Absorbance at 450 nm was measured using an automatic microplate reader (Molecular Devices, San Jose, CA, USA).
Figure 2 Effect of the Na^+/Ca^2+ exchanger (NCX) blockers on viability of human glioblastoma cell lines. (a, b) Viability of adult glioblastoma cell lines (U87 and U251) after exposure to NCX blockers bepridil, KB‐R7943, SEA0400, SN‐6, or YM244769 at 0–100 μM for 72 hr. n = 5 independent tests per group. (c) Viability of paediatric glioblastoma cell line SF188 after 72‐hr incubation with the same NCX blockers at 0–100 μM. n = 5 independent tests per group. (d) For U87, U251, and SF188 cell lines, concentration of the NCX blockers required to produce half maximal inhibition (IC50: μM, mean ± SEM) of cell viability.
For orientation: Formazan colour is commonly taken as a measure of viable cells.

In general, IC50 refers to the concentration at which inhibition is half-maximal.

With `CC(C)COCC(CN(Cc1ccccc1)c1ccccc1)N1CCCC1` (stereo not drawn) [Bepridil, N‐benzyl‐N‐(3‐isobutoxy‐2‐pyrrolidin‐1‐yl‐propyl)aniline], in the test on U87 cells, the “Effect on apoptosis (Annexin V+ cells), compound alone” value is recorded as “time‐dependent increase of apoptotic (Annexin V^+) cells”. In addition, the IC50 with forward NCX was 19.1 ± 1.2 µM; in the test on reverse NCX it was 15.6 ± 1.1 µM; in the test on U251 cells (Homo sapiens, U-251) it was 14.9 ± 1.1 µM. The “Effect on growth (viability) of U251 cells” value with U251 cells (25 μM, 48 hr) is given as “markedly suppressed growth”.

For `CS(=O)(=O)O.N=C(N)SCCc1ccc(OCc2ccc([N+](=O)[O-])cc2)cc1` [KB‐R7943, 2‐[4‐[(4‐nitrophenyl)methoxy]phenyl]ethyl ester carbamimidothioic acid methanesulfonate], the “Effect on apoptosis (Annexin V+ cells), compound alone” value in the test on U87 cells is “caused G0/G1 arrest and apoptosis”. The values for the IC50 in the test on forward NCX, in the test with reverse NCX and with U251 cells were 32.3 ± 1.3 µM, 14.3 ± 1.2 µM and 29.2 ± 1.1 µM, respectively.
